The results in this text go back to patent publication US20220226484A1, “THERAPEUTIC PEPTIDES” (COHBAR, INC., priority 2019, published 2022).

Positions of bridges follow the written chain, without caps; N, C: chain ends. Non-standard residues stand in square brackets, D forms with d. Primed or numbered codes have the meaning given here. Chains are numbered I, II in the order given. No end group written: not given here. PEG12′ = not defined here; Nle = CCCC[C@H](N)C(=O)O

Assay [1] deals with C2C12 Mouse Myoblasts. The assay can be described thus: Glucose utilization. The class given is cell-based. Conditions: peptide 10 μM, 18-22 hours, relative to 0.1% DMSO treated control. On the procedure: The effect of the peptides on glucose metabolism can be assessed using an assay of glucose utilization in cultured cultured cells such as mouse myoblasts. Peptides were initially prepared as 10 mM stock in DMSO and used at a final concentration of 10 μM (0.1% DMSO). C2C12 mouse myoblast cell line was purchased from American Type Culture Collection (Manassas, Va.). C2C12 cultures were maintained at 37° C. in a humidified atmosphere of 5% CO2/95% air with medium changes every second day. C2C12 cells were grown in DMEM (1 g/L glucose) supplemented with 10% FBS with 100 IU/ml penicillin and 100 μg/ml streptomycin. C2C12 cells were seeded at 7,000 cells per well on 96-well plates and cultured to confluence. Once the cell reached confluence the media was changed to DMEM (1 g/L glucose) supplemented with 2% HS with 100 IU/ml penicillin and 100 μg/ml streptomycin and maintained at 37° C. in a humidified atmosphere of 5% CO2/95% air. 5 days post-induction of differentiation fresh DMEM (1 g/L glucose) supplemented with 2% HS with 100 IU/ml penicillin and 100 μg/ml streptomycin was added to cultures. Cells were maintained at 37° C. in a humidified atmosphere of 5% CO2 and 95% air for 5 hours. After 5 hours test peptides at 10 μM or controls (0.5 mM or 1 mM metformin in 1% DMSO) prepared in fresh differentiation medium were added to cells and the cultures were maintained at 37° C. in a humidified atmosphere of 5% CO2/95% air for 18-22 hours. At the end of the incubation culture media was removed from the cells and the remaining glucose concentration was measured using a Glucose Assay kit (Abcam) according to the manufacturer's instructions, using a Cytation 3 plate reader at 570 nm (BioTek, Winooski, Vt.). Glucose concentrations in the medium were calculated relative to 0.1% DMSO treated control cells. The relative standard deviation of the result for the 0.1% DMSO treated control was <20%. Metformin was used as a positive control for reduction of glucose levels (increased glucose utilization glucose levels for treatment with metformin (1 mM) treatment were <20% of the 0.1% DMSO treated control value. The results are reported in Table 7.

In assay [2] the test system is SH-SY5Y Neuroblastoma Cells. Briefly: ATP levels (CellTiter-Glo). The class given is cell-based, human. To be noted: peptide 10 μM, 18-20 hours, relative to 0.1% DMSO treated control. As to the method: The effect of the peptides on cellular metabolism can be assessed using an assay of ATP levels in cultured cells such as human neuroblastoma cells. Peptides were initially prepared as 10 mM stock in DMSO and used at a final concentration of 10 μM (0.1% DMSO). […] CellTiter-Glo® Assay kit was purchased from Promega. SH-SY5Y human bone marrow neuroblastoma cell line was purchased from American Type Culture Collection (Manassas, Va.) and licensed from Memorial Sloan-Kettering Cancer Center (New York, N.Y.). SH-SY5Y cells were grown in DMEM/F12 medium supplemented with 10% FBS with 100 IU/ml penicillin and 100 μg/ml streptomycin. Cultures were maintained at 37° C. in a humidified atmosphere of 5% CO2/95% air. SH-SY5Y cells were seeded at 30,000 cells per well on 96-well plates. […] ATP levels were determined using a CellTiter-Glo Assay kit (Promega) according to the manufacturer's instructions. Luminescence for each sample well on the plate was measured using a Cytation 3 plate reader (BioTek, Winooski, Vt.). Activity was calculated relative to 0.1% DMSO treated control. The relative standard deviation of the result for the 0.1% DMSO treated control was <5%.
In general terms: In ATP-based viability assays light output follows the ATP content of the culture.

In assay [3] the test system is 3T3-L1 Mouse Adipocytes. The assay can be described thus: Insulin-dependent effect on free fatty acid levels in cultured mouse adipocytes. The class given is cell-based. To be noted: 3 hours; for Free Fatty Acid Levels, MEAN % ISO, +Insulin: peptide 10 μM + insulin 0.25 nM, percent of isoproterenol (0.1 nM)+insulin (0.25 nM); for Free Fatty Acid Levels, MEAN % ISO, −Insulin: peptide 10 μM alone, percent of isoproterenol (0.1 nM) treated control cells. In short, it runs like this:
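Day-14 differentiated 3T3-L1 adipocytes, insulin-starved 2 days, were treated 3 hours at 37° C with peptides (10 μM, 0.1% DMSO) alone or with insulin (0.25 nM) under isoproterenol stimulation. Released free fatty acids measured colorimetrically at 540 nm, background-corrected and expressed as percent of matching isoproterenol or isoproterenol+insulin control.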

As for MRVIRMCLGVGLLGDLAG [SEQ ID NO: 2], the “Glucose Utilization (glucose in medium), Percent of Untreated Control” value in assay [1] worked out at 110.9%. The “ATP Levels, % Control” value in assay [2] came to 99.6%. In addition, in assay [3], the “Free Fatty Acid Levels, MEAN % ISO, +Insulin” value is listed as 60.5% and the “Free Fatty Acid Levels, MEAN % ISO, −Insulin” value was found to be 98.8%.

As for “R(dA)IR(Nle)SLNVGLLGEL(dA) (R[dA]IR[Nle]SLNVGLLGEL[dA]) [SEQ ID NO: 15]”, in assay [3], the “Free Fatty Acid Levels, MEAN % ISO, +Insulin” value came to 112.6% and the “Free Fatty Acid Levels, MEAN % ISO, −Insulin” value came to 97.6%.

On to “RVIR(Nle)CLNVGLLGEL(dA)G (RVIR[Nle]CLNVGLLGEL[dA]G) [SEQ ID NO: 6]”, for which, in assay [3], the “Free Fatty Acid Levels, MEAN % ISO, +Insulin” value came out at 66.9% and the “Free Fatty Acid Levels, MEAN % ISO, −Insulin” value came to 93.6%.

As for “RVIR(Nle)SLNVGLEGEL(dA) (RVIR[Nle]SLNVGLEGEL[dA]) [SEQ ID NO: 14]”, in assay [3], the “Free Fatty Acid Levels, MEAN % ISO, +Insulin” value is on record as 71.9% and the “Free Fatty Acid Levels, MEAN % ISO, −Insulin” value was determined as 89.9%.

For the substance “RVIR(Nle)SLNVGLLGEL(dA)G (RVIR[Nle]SLNVGLLGEL[dA]G) [SEQ ID NO: 8]”, in assay [3], the “Free Fatty Acid Levels, MEAN % ISO, +Insulin” value turned out to be 74.9% and the “Free Fatty Acid Levels, MEAN % ISO, −Insulin” value was 69.3%.

In the case of “RVIRMCLGVGLLGDL(dA)G (RVIRMCLGVGLLGDL[dA]G) [SEQ ID NO: 4]”, the “Glucose Utilization (glucose in medium), Percent of Untreated Control” value in assay [1] came out at 107.3%. For the same substance, the “ATP Levels, % Control” value in assay [2] worked out at 104.7%. In assay [3], the “Free Fatty Acid Levels, MEAN % ISO, +Insulin” value was 36.6% and the “Free Fatty Acid Levels, MEAN % ISO, −Insulin” value turned out to be 92.9%.

For the substance “RVIRMCLGVGLLGDLAG (disulfide I:6-II:6) [SEQ ID NO: 26]”, in assay [3], the “Free Fatty Acid Levels, MEAN % ISO, +Insulin” value amounted to 33.4% and the “Free Fatty Acid Levels, MEAN % ISO, −Insulin” value came out at 93.5%.

Turning to RVIRMCLGVGLLGDLAG [SEQ ID NO: 3], the “Glucose Utilization (glucose in medium), Percent of Untreated Control” value in assay [1] was determined as 108.0%. Further, the “ATP Levels, % Control” value in assay [2] is on record as 101.5%. Further, in assay [3], the “Free Fatty Acid Levels, MEAN % ISO, +Insulin” value came to 37.1% and the “Free Fatty Acid Levels, MEAN % ISO, −Insulin” value is 98.0%.

For “RVIRMCLGVGLLGDLAGK{PEG12} (RVIRMCLGVGLLGDLAGK(PEG12′)) [SEQ ID NO: 17]”, in assay [3], the “Free Fatty Acid Levels, MEAN % ISO, +Insulin” value came out at 35.9% and the “Free Fatty Acid Levels, MEAN % ISO, −Insulin” value was found to be 102%.

With “RVIRMCLGVGLLGDLAGK{PEG12} (chain 1 RVIRMCLGVGLLGDLAGK(PEG12′); chain 2 RVIRMCLGVGLLGDLAGK(PEG12′); disulfide I:6-II:6) [SEQ ID NO: 28]”, in assay [3], the “Free Fatty Acid Levels, MEAN % ISO, +Insulin” value worked out at 33.4% and the “Free Fatty Acid Levels, MEAN % ISO, −Insulin” value amounted to 80.7%.

Consider “RVIRMCLNNGLLGEL(dA)G (RVIRMCLNNGLLGEL[dA]G) [SEQ ID NO: 9]”, for which, in assay [3], the “Free Fatty Acid Levels, MEAN % ISO, +Insulin” value stood at 41.0% and the “Free Fatty Acid Levels, MEAN % ISO, −Insulin” value is 95.2%.

As to “RVIRMCLNNGLNGEL(dA)E (RVIRMCLNNGLNGEL[dA]E) [SEQ ID NO: 23]”, in assay [3], the “Free Fatty Acid Levels, MEAN % ISO, +Insulin” value was found to be 43.9% and the “Free Fatty Acid Levels, MEAN % ISO, −Insulin” value came to 99.4%.

On to “RVIRMCLNVGLLGEL(dA)E (RVIRMCLNVGLLGEL[dA]E) [SEQ ID NO: 12]”, for which, in assay [3], the “Free Fatty Acid Levels, MEAN % ISO, +Insulin” value came out at 41.2% and the “Free Fatty Acid Levels, MEAN % ISO, −Insulin” value stood at 92.8%.

Consider “RVIRMCLNVGLLGEL(dA)G [SEQ ID NO: 5] (RVIRMCLNVGLLGEL[dA]G)”, for which the “Glucose Utilization (glucose in medium), Percent of Untreated Control” value in assay [1] amounted to 111.2%. In addition, the “ATP Levels, % Control” value in assay [2] was found to be 100.8%. In assay [3] (listed as 5), the “Free Fatty Acid Levels, MEAN % ISO, +Insulin” value was 37.0% and the “Free Fatty Acid Levels, MEAN % ISO, −Insulin” value came to 94.3%.

Turning to “RVIRMCLNVGLNGEL(dA)G (RVIRMCLNVGLNGEL[dA]G) [SEQ ID NO: 11]”, in assay [3], the “Free Fatty Acid Levels, MEAN % ISO, +Insulin” value turned out to be 44.0% and the “Free Fatty Acid Levels, MEAN % ISO, −Insulin” value is 65.5%.

Take “RVIRMCLNVGNLGEL(dA)G (RVIRMCLNVGNLGEL[dA]G) [SEQ ID NO: 10]”: in assay [3], the “Free Fatty Acid Levels, MEAN % ISO, +Insulin” value is reported as 63.2% and the “Free Fatty Acid Levels, MEAN % ISO, −Insulin” value was determined as 90.7%.

For the substance “RVIRMSLNVGLEGEL(dA) (RVIRMSLNVGLEGEL[dA]) [SEQ ID NO: 13]”, in assay [3], the “Free Fatty Acid Levels, MEAN % ISO, +Insulin” value worked out at 78.4% and the “Free Fatty Acid Levels, MEAN % ISO, −Insulin” value turned out to be 89.5%.

Turning to “RVIRMSLNVGLLGEL(dA)G (RVIRMSLNVGLLGEL[dA]G) [SEQ ID NO: 7]”, in assay [3], the “Free Fatty Acid Levels, MEAN % ISO, +Insulin” value is listed as 74.5% and the “Free Fatty Acid Levels, MEAN % ISO, −Insulin” value is listed as 91.1%.
